The solubility is the concentration that dissolves in the medium under given conditions.

SMILES strings stand for the structures. Converted amounts (≈) assume the structure as drawn.

The series is described as follows: Solubility of active compound (I). It counts as physicochemical. How it is done:
The active compound (I) has a relatively poor water solubility (about 7 mg/l). As a result of this, difficulties with the oral bioavailability and an increased biological variability of the absorption rate can result.
An alternative process is the amorphization of the active compound. […] Amorphization of the active compound by means of the fusion method is also disadvantageous because of the high melting point of the active compound (about 230° C.), since an undesirably high proportion of breakdown components is formed during the preparation.

As for `O=C(NC[C@H]1CN(c2ccc(N3CCOCC3=O)cc2)C(=O)O1)c1ccc(Cl)s1` [active compound (I), 5-chloro-N-({(5S)-2-oxo-3-[4-(3-oxo-4-morpholinyl)-phenyl]-1,3-oxazolidin-5-yl}-methyl)-2-thiophenecarboxamide], the “solubility in pharmaceutically acceptable solvents” value (solvents such as ethanol or acetone) is on record as “poorly soluble”. Besides, under “water”, the solubility was about 7 µg/mL (≈ 16.1 µM).
